For 16 compounds, IC50 results are on record in US20250215029A1 (Recludix Pharma, Inc., priority 2022, published 2025).

Assay [1] deals with T1, Recombinant STAT3 protein (STAT3 (G127-I722)) (Homo sapiens, UniProt P40763).
T1 construct: Recombinant STAT3 protein (STAT3 (G127-I722))
The assay can be described thus: STAT3 Fluorescence Polarization (FP) Assay. In kind it is binding. As to conditions: probe 5-FAM-GpYLPQTV-NH2 2 nM, 45-minute incubation. In a few lines: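 Read-out is fluorescence polarization (mP) after 45 min at room temperature, with IC50 fitted by nonlinear regression against log compound concentration. Mixture: 25 nM STAT3 (G127-I722), 2 nM 5-FAM-GpYLPQTV-NH2 phosphopeptide, 10 mM HEPES pH 7.4 buffer, 1% DMSO.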
On the technique in general: In fluorescence polarisation assays a small probe gives low polarisation when free and higher when bound to something large.

For assay [2], the target named is T2, Recombinant STAT6 protein (STAT6 (W123-T658)) (Homo sapiens, UniProt P42226).
T2 construct: Recombinant STAT6 protein (STAT6 (W123-T658))
T2 sequence (P42226 123-658): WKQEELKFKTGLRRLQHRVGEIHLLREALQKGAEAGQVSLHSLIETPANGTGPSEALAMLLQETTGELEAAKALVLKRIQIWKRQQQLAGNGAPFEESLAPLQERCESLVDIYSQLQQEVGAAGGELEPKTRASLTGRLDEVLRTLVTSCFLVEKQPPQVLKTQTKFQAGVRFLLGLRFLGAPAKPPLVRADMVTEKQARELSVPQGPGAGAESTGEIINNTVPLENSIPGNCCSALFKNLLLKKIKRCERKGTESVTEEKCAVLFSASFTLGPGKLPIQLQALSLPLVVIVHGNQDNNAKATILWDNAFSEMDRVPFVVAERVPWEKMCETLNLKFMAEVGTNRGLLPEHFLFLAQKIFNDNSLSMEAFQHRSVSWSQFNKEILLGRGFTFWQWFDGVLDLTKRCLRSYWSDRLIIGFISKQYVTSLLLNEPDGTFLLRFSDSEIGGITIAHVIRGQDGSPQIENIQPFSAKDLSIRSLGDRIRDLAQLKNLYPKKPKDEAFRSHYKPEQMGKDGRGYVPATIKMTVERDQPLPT
Description: STAT6 Fluorescence Polarization (FP) Assay. Type of assay: binding. As to conditions: probe 5-FAM-Ap[…]-NH2 2 nM, 45-minute incubation. In short, it runs like this:
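Competitive FP binding: recombinant STAT6 (W123-T658) at 250 nM, labeled phosphotyrosine peptide at 2 nM, compounds at 1% DMSO, 45 min at RT before reading. IC50 values were obtained from nonlinear regression of mP versus log concentration.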

[3] abbreviates: STAT3 (G127-I722) 25 nM, read-out: STAT3 (FP assay IC50 class).
Setting [4] is: STAT6 (W123-T658) 250 nM, read-out: STAT6 (FP assay IC50 class).
Where [5] appears, read: STAT3 25 nM, read-out: STAT3 (FP assay IC50).
Setting [6] is: STAT6 250 nM, read-out: STAT6 (FP assay IC50).

SMILES strings stand for the structures. Like-named read-outs stand apart in the source and are kept apart here. A value given as a limit tells only on which side of the number the result lay.

By IC50 is commonly meant the concentration needed to halve the response being measured.

T1 sequence (P40763 127-722): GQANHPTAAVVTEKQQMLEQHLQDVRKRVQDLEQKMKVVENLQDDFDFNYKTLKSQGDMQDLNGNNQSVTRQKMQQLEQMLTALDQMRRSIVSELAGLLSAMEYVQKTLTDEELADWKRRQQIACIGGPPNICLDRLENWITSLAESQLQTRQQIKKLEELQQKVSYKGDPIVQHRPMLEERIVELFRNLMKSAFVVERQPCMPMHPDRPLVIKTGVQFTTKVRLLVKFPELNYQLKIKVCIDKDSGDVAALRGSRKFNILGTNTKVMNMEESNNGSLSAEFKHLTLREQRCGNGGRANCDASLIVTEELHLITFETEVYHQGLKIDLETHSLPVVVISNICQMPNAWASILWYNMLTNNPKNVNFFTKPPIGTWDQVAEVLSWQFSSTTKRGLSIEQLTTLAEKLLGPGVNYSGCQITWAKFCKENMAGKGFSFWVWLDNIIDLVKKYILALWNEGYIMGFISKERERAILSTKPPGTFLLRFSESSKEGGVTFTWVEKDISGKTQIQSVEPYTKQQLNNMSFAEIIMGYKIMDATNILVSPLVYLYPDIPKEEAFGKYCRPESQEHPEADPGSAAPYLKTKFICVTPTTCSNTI

Turning to `O=C(N[C@H]1CCCC[C@H]2CC[C@@H](C(=O)N[C@@H]3CCN(C(=O)OC4CC4)C3)N2C1=O)c1cc2cc(C(F)P(=O)(O)O)ccc2s1` (stereo partly drawn) [Compound 527, ((2-(((3S,6S,10aS)-3-(((R)-1-(cyclopropoxycarbonyl)pyrrolidin-3-yl)carbamoyl)-5-oxodecahydropyrrolo[1,2-a]azocin-6-yl)carbamoyl)benzo[b]thiophen-5-yl)fluoromethyl)phosphonic acid], the IC50 in assay [1] (setting [3]) is 1 to 10 µM; in assay [2] (setting [4]), 0.3 to 3 µM.
`CN1CCN(C(=O)[C@@H]2CC[C@@H]3CCC[C@H](NC(=O)c4cc5cc(C(F)P(=O)(O)O)ccc5s4)C(=O)N32)c2ccccc21` (stereo partly drawn) [Compound 763, (fluoro(2-(((3S,6S,9aS)-3-(4-methyl-1,2,3,4-tetrahydro-quinoxaline-1-carbonyl)-5-oxooctahydro-1H-pyrrolo[1,2-a]azepin-6-yl)carbamoyl)benzo [b]thiophen-5-yl)methyl) phosphonic acid]: the IC50 in assay [1] (setting [3]) lay within 1 to 10 µM; in assay [2] (setting [4]), 3 to 30 µM.
On to `COc1c(Cl)cncc1C1CN(C(=O)[C@@H]2CC[C@@H]3CCC[C@H](NC(=O)c4cc5cc(C(F)P(=O)(O)O)ccc5s4)C(=O)N32)C1` (stereo partly drawn) [Compound 682, ((2-(((3S,6S,9aS)-3-(3-(5-chloro-4-methoxypyridin-3-yl)azetidine-1-carbonyl)-5-oxooctahydro-1H-pyrrolo[1,2-a]azepin-6-yl)carbamoyl)benzo [b]thiophen-5-yl)fluoromethyl) phosphonic acid], for which the IC50 in assay [1] (setting [3]) is 0.1 to 1 µM; in assay [2] (setting [4]) it was 3 to 30 µM.
In the case of `C[C@H]1C[C@H]2CC[C@@H](C(=O)N3C[C@H](c4ccccc4)[C@@H](C#N)C34CC4)N2C(=O)[C@@H](NC(=O)c2cc3cc([C@H](F)P(=O)(O)O)ccc3s2)C1` [Compound 849, ((R)-(2-(((3S,6S,8R,9aR)-3-((6S,7R)-7-cyano-6-phenyl-4-azaspiro[2.4]heptane-4-carbonyl)-8-methyl-5-oxooctahydro-1H-pyrrolo[1,2-a]azepin-6-yl)carbamoyl)benzo [b]thiophen-5-yl)fluoromethyl) phosphonic acid], the IC50 in assay [1] (setting [3]) was 1 to 10 µM; in assay [2] (setting [4]) it was no more than 0.3 µM.
With `O=C(N[C@H]1CCC[C@H]2CC[C@@H](C(=O)N3CC(c4ccnc(O)n4)C3)N2C1=O)c1cc2cc(C(F)P(=O)(O)O)ccc2s1` (stereo partly drawn) [Compound 927, (fluoro(2-(((3S,6S,9aS)-3-(3-(2-hydroxypyrimidin-4-yl)azetidine-1-carbonyl)-5-oxooctahydro-1H-pyrrolo[1,2-a]azepin-6-yl)carbamoyl)benzo [b]thiophen-5-yl)methyl) phosphonic acid], the IC50 in assay [1] (setting [3]) was less than 0.1 µM; in assay [2] (setting [4]), 3 to 30 µM.
As for `CCc1ccncc1C1CN(C(=O)[C@@H]2CC[C@@H]3CCC[C@H](NC(=O)c4cn5cc(CP(=O)(O)O)ccc5n4)C(=O)N32)C1` [Compound 575, ((2-(((3S,6S,9aS)-3-(3-(4-ethylpyridin-3-yl)azetidine-1-carbonyl)-5-oxooctahydro-1H-pyrrolo[1,2-a]azepin-6-yl)carbamoyl)imidazo[1,2-a]pyridin-6-yl)methyl)phosphonic acid], the IC50 in assay [1] (setting [3]) fell in the range of 1 to 10 µM; in assay [2] (setting [4]), 3 to 30 µM.
As for `Cc1ccccc1C1CN(C(=O)[C@@H]2CC[C@@H]3CCC[C@H](NC(=O)c4cc5cc(C(F)(F)P(=O)(O)O)ccc5s4)C(=O)N32)C1` [Compound 778, (difluoro(2-(((3S,6S,9aS)-5-oxo-3-(3-(o-tolyl)azetidine-1-carbonyl)octahydro-1H-pyrrolo[1,2-a]azepin-6-yl)carbamoyl)benzo [b]thiophen-5-yl)methyl) phosphonic acid], the IC50 was less than 0.1 µM in assay [1] (setting [3]) and 0.3 to 3 µM in assay [2] (setting [4]).
On the same counts, the results for `Cc1nc2cc(CNC(=O)[C@@H]3CC[C@@H]4CCC[C@H](NC(=O)c5cc6cc(C(F)(F)P(=O)(O)O)ccc6s5)C(=O)N43)ccc2[nH]1` [Compound 1116, (difluoro(2-(((3S,6S,9aS)-3-(((2-methyl-1H-benzo[d]imidazol-5-yl)methyl)carbamoyl)-5-oxooctahydro-1H-pyrrolo[1,2-a]azepin-6-yl)carbamoyl)benzo[b]thiophen-5-yl)methyl)phosphonic acid] are 0.1 to 1 µM and 3 to 30 µM.
In the case of `Cc1ccncc1C1CN(C(=O)[C@@H]2CC[C@@H]3C[C@H](C)C[C@H](NC(=O)c4cc5cc([C@@H](F)P(=O)(O)O)ccc5s4)C(=O)N32)C1` (single isomer, unassigned) [Compound 753], the IC50 was less than 0.1 µM in assay [1] (setting [3]) and 3 to 30 µM in assay [2] (setting [4]).
Consider `CCc1ccncc1C1CN(C(=O)[C@@H]2CC[C@@H]3CCC[C@H](NC(=O)c4ccc5sc(CP(=O)(O)O)cc5c4)C(=O)N32)C1` [Compound 576, ((5-(((3S,6S,9aS)-3-(3-(4-ethylpyridin-3-yl)azetidine-1-carbonyl)-5-oxooctahydro-1H-pyrrolo[1,2-a]azepin-6-yl)carbamoyl)benzo[b]thiophen-2-yl)methyl)phosphonic acid], for which the IC50 in assay [1] (setting [3]) was 0.1 to 1 µM; in assay [2] (setting [4]) it was 3 to 30 µM.
In the case of `Cn1ccc(N2CC[C@@H](NC(=O)[C@@H]3CC[C@@H]4CCCC[C@H](NC(=O)c5cc6cc(C(F)P(=O)(O)O)ccc6s5)C(=O)N43)C2)n1` (stereo partly drawn) [Compound 533, (fluoro(2-(((3S,6S,10aS)-3-(((R)-1-(1-methyl-1H-pyrazol-3-yl)pyrrolidin-3-yl)carbamoyl)-5-oxodecahydropyrrolo[1,2-a]azocin-6-yl)carbamoyl)benzo[b]thiophen-5-yl)methyl)phosphonic acid], the IC50 in assay [1] (setting [3]) lay in the range of 1 to 10 µM; in assay [2] (setting [4]), 0.3 to 3 µM.
For `O=C(N[C@H]1CCCC[C@H]2CC[C@@H](C(=O)N3CC(OCC(F)F)(c4cccnc4)C3)N2C1=O)c1cc2cc(C(F)P(=O)(O)O)ccc2s1` (stereo partly drawn) [Compound 616, ((2-(((3S,6S,10aS)-3-(3-(2,2-difluoroethoxy)-3-(pyridin-3-yl)azetidine-1-carbonyl)-5-oxodecahydropyrrolo [1,2-a]azocin-6-yl)carbamoyl)benzo [b]thiophen-5-yl)fluoromethyl) phosphonic acid], the IC50 is less than 0.1 µM in assay [1] (setting [3]) and 3 to 30 µM in assay [2] (setting [4]).
As for `CC(C)(O)c1cn(C2CN(C(=O)[C@@H]3CC[C@@H]4CCCC[C@H](NC(=O)c5cc6cc(C(F)(F)P(=O)(O)O)ccc6s5)C(=O)N43)C2)nn1` [Compound 56, (difluoro(2-(((3S,6S,10aS)-3-(3-(4-(2-hydroxypropan-2-yl)-1H-1,2,3-triazol-1-yl)azetidine-1-carbonyl)-5-oxodecahydropyrrolo [1,2-a]azocin-6-yl)carbamoyl)benzo[b]thiophen-5-yl)methyl) phosphonic acid], the IC50 in assay [1] (setting [5]) was 0.1 to 1 µM; in assay [2] (setting [6]), 3 to 30 µM.
For the compound `Cn1cc(F)c(N2C(=O)N(C(=O)[C@@H]3CC[C@@H]4CCCC[C@H](NC(=O)c5cc6cc(C(F)P(=O)(O)O)ccc6s5)C(=O)N43)C3(CC3)C2=O)cc1=O` (stereo partly drawn) [Compound 581, (fluoro(2-(((3S,6S,10aS)-3-(6-(5-fluoro-1-methyl-2-oxo-1,2-dihydropyridin-4-yl)-5,7-dioxo-4,6-diazaspiro[2.4]heptane-4-carbonyl)-5-oxodecahydropyrrolo[1,2-a]azocin-6-yl)carbamoyl)benzo[b]thiophen-5-yl)methyl)phosphonic acid], the IC50 lay within 1 to 10 µM in assay [1] (setting [3]) and 0.3 to 3 µM in assay [2] (setting [4]).
On to `O=C(N[C@H]1CCC[C@H]2CC[C@@H](C(=O)N3CC(c4cncnc4N4CCC4)C3)N2C1=O)c1cc2cc([C@H](F)P(=O)(O)O)ccc2s1` (single isomer, unassigned) [Compound 689], for which the half-maximal inhibitory concentration (IC50) in assay [1] (setting [3]) was less than 0.1 µM; in assay [2] (setting [4]) it was 0.3 to 3 µM.
Regarding `O=C(N[C@H]1CCC[C@H]2CC[C@@H](C(=O)N3CC(C4CCOCC4)C3)N2C1=O)c1cc2cc(C(F)(F)P(=O)(O)O)ccc2s1` [Compound 119, (difluoro(2-(((3S,6S,9aS)-5-oxo-3-(3-(tetrahydro-2H-pyran-4-yl)azetidine-1-carbonyl)octahydro-1H-pyrrolo[1,2-a]azepin-6-yl)carbamoyl)benzo[b]thiophen-5-yl)methyl) phosphonic acid], the values for the IC50 in assay [1] (setting [5]) and in assay [2] (setting [6]) were 0.1 to 1 µM and 3 to 30 µM, respectively.
